Laboratory results as given in publication PMC9303580, “The T1‐tetramerisation domain of Kv1.2 rescues expression and preserves function of a truncated NaChBac sodium channel” (Febs Letters, 2022).

What was measured:
[1] = test system: T1, T1-chimera; assay: […]+ flux assay in proteoliposomes; assay type: biochemical, Halalkalibacterium halodurans; conditions: estimated; block at 45 min, POPE:POPG 3:1 liposomes, 450 mM NaCl inside, pH 7.5; pore blocker
T1 construct: gene NaChBac; single-chain fusion: N-terminal His6 tag, human Kv1.2 T1 domain (1-145, MTV...NEF), then NaChBac TM domain printed as 9-239 (KQN...ELT; forward primer encodes QKQN, K8 is in QKQ, so start is probably Q7), CTD removed; E. coli C41(DE3); with Potassium voltage-gated channel subfamily A member 2

[2] = target: T2, full-length NaChBac (Halalkalibacterium halodurans, UniProt Q9KCR8); assay: […]+ flux assay in proteoliposomes; assay type: biochemical
T2 construct: gene BH1501; full-length, hexa-histidine-tagged (pET-15b), expressed in E. coli C41(DE3), purified in Cymal-5, reconstituted in POPE:POPG liposomes
T2 sequence (Q9KCR8 1-274): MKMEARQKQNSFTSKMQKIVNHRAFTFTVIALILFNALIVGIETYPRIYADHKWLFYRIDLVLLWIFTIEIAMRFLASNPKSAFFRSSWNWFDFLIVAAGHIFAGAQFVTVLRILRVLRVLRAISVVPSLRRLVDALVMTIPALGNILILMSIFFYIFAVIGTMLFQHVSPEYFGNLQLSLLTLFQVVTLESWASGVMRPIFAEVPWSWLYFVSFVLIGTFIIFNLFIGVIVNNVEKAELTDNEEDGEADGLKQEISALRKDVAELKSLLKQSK

SMILES: COCC(=O)O[C@]1(CCN(C)CCCc2nc3ccccc3[nH]2)CCc2cc(F)ccc2[C@@H]1C(C)C [mibefradil]
- IC50 [1]: 2000 nM
- IC50 [2]: 2000 nM
